PMC10648349, “Aromatic Diboronic Acids as Effective KPC/AmpC Inhibitors” (Molecules, 2023)
≈ marks a conversion by molar mass, not a printed value.

Assays:
[1] = tested on: E. coli 76 KPC-2-positive; experiment: checkerboard microdilution, antibiotic plus tested agent; type: cell-based, Escherichia coli; settings: Escherichia coli; read-out: MIC of ertapenem alone
Method: (§1) To examine the ability of tested agents to inhibit various carbapenemases and AmpC-enzymes, their synergy with antibiotics against β-lactamase-producing strains was assessed by checkerboard microdilution assay, with slight modification. Checkerboards were prepared in microtiter plates, with seven two-fold dilutions of β-lactams (1–64 mg/L) in the rows and three two-fold dilutions of tested agents and PBA (4–16 mg/L) in the columns. Tested agents’ concentrations were limited to the concentrations at which the newest commercially available BLIs (vaborbactam, relebactam, and avibactam) are used in susceptibility testing. Plates were inoculated and incubated as in the MIC microdilution assay. Parallel, MICs of tested agents and PBA alone were determined by the microdilution assay. Following the incubation, antibiotic MICs in the presence of each agent’s concentration were determined. Moreover, for the first well without growth found in each checkerboard row and column along the growth/non-growth interface, the fractional inhibitory concentration index (FICI) was calculated using the formula below:FICI = [(MIC of antibiotic in combination)/(MIC of antibiotic alone)] + [(MIC of the tested agent in combination)/(MIC of tested agent alone)].
(§2) For calculations, all off-scale MICs were converted to the next-highest doubling concentration. Subsequently, both the average and the lowest FICI were interpreted. The interpretation was as follows: FICI ≤ 0.5, synergy; 0.5 < FICI ≤ 4, indifference and FICI > 4, antagonism. Primarily, examined combinations consisted of meropenem (Pol-Aura, Morag, Poland) plus tested agents against carbapenemases-producing strains and ceftazidime (Pol-Aura, Morag, Poland) plus tested agents against AmpC-producing strains. For agents that reduced meropenem MIC at least 4-fold for at least two tested strains, similar assays were performed with imipenem (Pol-Aura, Morag, Poland) and ertapenem (Pol-Aura, Morag, Poland).

[2] = tested on: K. pneumoniae 81 KPC-3-positive; experiment: as above; type: cell-based, Klebsiella pneumoniae; settings: Klebsiella pneumoniae; read-out: MIC of ertapenem alone
Method: as §1, §2

[3] = tested on: K. pneumoniae 83 KPC-3-positive, CTX-M-3-positive; experiment: as above; type: cell-based, Klebsiella pneumoniae; settings: Klebsiella pneumoniae; read-out: MIC of ertapenem alone
Method: as §1, §2

[4] = tested on: K. pneumoniae ATCC BAA-1705 KPC-2-positive; experiment: as above; type: cell-based, Klebsiella pneumoniae; settings: Klebsiella pneumoniae, ATCCBAA1705; read-out: MIC of ertapenem alone
Method: as §1, §2

KPC producers = experiment: microdilution with carbapenems; type: cell-based; settings: strains used in this study
Method: as §1, §2

E. faecalis ATCC 29212 = experiment: direct antimicrobial activity (disc-diffusion, MIC, MBC); type: cell-based; settings: Enterococcus faecalis, ATCC29212
Method: (§3) Direct antimicrobial activity against Gram-negative and Gram-positive bacterial strains, as well as against yeast, was examined as previously described by the disc-diffusion test, the MIC determination assay, the MBC (for bacteria), and the MFC (for yeasts) determination tests. All the above-mentioned tests were performed according to EUCAST [71, 72] and CLSI [73, 74, 75, 76, 77] recommendations. The following reference agents were used: nitrofurantoin (for Gram-negative rods), linezolid (for Gram-positive bacteria), and fluconazole (in the case of fungi). The new aromatic diboronic acids were dissolved in DMSO (Sigma, St. Louis, MO, USA). In the disc-diffusion test, the concentration of new agents was 0.4 mg per disc.

E. faecium ATCC 6057 = experiment: as above; type: cell-based; settings: Enterococcus faecium, ATCC6057
Method: as §3

[5] = tested on: S. aureus ATCC 43300 MRSA; experiment: as above; type: cell-based; settings: Staphylococcus aureus
Method: as §3

S. aureus ATCC 6538P = experiment: as above; type: cell-based; settings: Staphylococcus aureus, ATCC6538P
Method: as §3

[6] = tested on: S. epidermidis ATCC 12228; experiment: as above; type: cell-based; settings: Staphylococcus epidermidis, ATCC12228
Method: as §3

[7] = tested on: C. parapsilosis ATCC 22019; experiment: antifungal activity (disc-diffusion, MIC, MFC); type: cell-based, Candida parapsilosis; settings: Lodderomyces parapsilosis, ATCC22019; fluconazole by Etest
Method: as §3

[8] = tested on: C. guilliermondii IBA 155; experiment: antifungal activity (disc-diffusion, MIC, MFC); type: cell-based, Candida guilliermondii; settings: Meyerozyma guilliermondii, IBA155; fluconazole by Etest
Method: as §3

C. krusei ATCC 6258 = experiment: antifungal activity (disc-diffusion, MIC, MFC); type: cell-based, Candida krusei; settings: Pichia kudriavzevii, ATCC6258; fluconazole by Etest
Method: as §3

C. albicans ATCC 90028 = experiment: antifungal activity (disc-diffusion, MIC, MFC); type: cell-based; settings: Candida albicans, ATCC90028; fluconazole by Etest
Method: as §3

C. tropicalis ATCC 750 = experiment: antifungal activity (disc-diffusion, MIC, MFC); type: cell-based; settings: Candida tropicalis, ATCC750; fluconazole by Etest
Method: as §3

C. tropicalis IBA 171 = experiment: antifungal activity (disc-diffusion, MIC, MFC); type: cell-based; settings: Candida tropicalis, IBA171; fluconazole by Etest
Method: as §3

S. cerevisiae ATCC 9763 = experiment: antifungal activity (disc-diffusion, MIC, MFC); type: cell-based; settings: Saccharomyces cerevisiae, ATCC9763; fluconazole by Etest
Method: as §3

E. coli 76 KPC-2(+) = experiment: MIC of tested agent alone, microdilution; type: cell-based; settings: Escherichia coli; read-out: MIC of agent alone
Method: as §1

E. coli 77 CMY-2(+) = experiment: MIC of tested agent alone, microdilution; type: cell-based; settings: Escherichia coli; read-out: MIC of agent alone
Method: as §1

[9] = tested on: K. pneumoniae 81 KPC-3(+); experiment: MIC of tested agent alone, microdilution; type: cell-based; settings: Klebsiella pneumoniae; read-out: MIC of agent alone
Method: as §1

[10] = tested on: K. pneumoniae 83 KPC-3(+), CTX-M-3(+); experiment: MIC of tested agent alone, microdilution; type: cell-based; settings: Klebsiella pneumoniae; read-out: MIC of agent alone
Method: as §1

[11] = tested on: K. pneumoniae ATCC BAA-1705 KPC-2(+); experiment: MIC of tested agent alone, microdilution; type: cell-based; settings: Klebsiella pneumoniae, ATCCBAA1705; read-out: MIC of agent alone
Method: as §1

[12] = tested on: P. aeruginosa MUW 700 AmpC(+); experiment: MIC of tested agent alone, microdilution; type: cell-based; settings: Pseudomonas aeruginosa; read-out: MIC of agent alone
Method: as §1

[13] = tested on: K. pneumoniae ATCC BAA 1705 KPC-2-positive; experiment: combination disc test CDT-KPC; type: cell-based; settings: Klebsiella pneumoniae, BAA1705; agent 0.3 mg per disc; read-out: Diameter of inhibition zone, MEM-10 disc with agent
[14] = tested on: P. aeruginosa MUW 700 cAmpC-positive; experiment: combination disc test CDT-AmpC; type: cell-based; settings: Pseudomonas aeruginosa; agent 0.3 mg per disc; read-out: Diameter of inhibition zone, CAZ-30 disc with agent
[15] = tested on: E. coli 77 CMY-2-positive; experiment: combination disc test CDT-AmpC; type: cell-based; settings: Escherichia coli; agent 0.3 mg per disc; read-out: Diameter of inhibition zone, CAZ-30 disc with agent
[16] = tested on: K. pneumoniae ATCC 700603 ESBL-positive; experiment: combination disc test CDT-ESBL; type: cell-based; settings: Klebsiella pneumoniae, ATCC700603; agent 0.3 mg per disc; read-out: Diameter of inhibition zone, CAZ-30 disc with agent
[17] = tested on: E. coli 77 CMY-2-positive; experiment: checkerboard microdilution, antibiotic plus tested agent; type: cell-based, Escherichia coli
Method: as §1, §2

[18] = tested on: P. aeruginosa MUW 700 cAmpC-positive; experiment: as above; type: cell-based, Pseudomonas aeruginosa
Method: as §1, §2

[19] = MTT-based viability assay; type: cell-based; settings: human, MRC-5 human fibroblasts, 72 h, read-out: Viability of MRC-5 cells (% of viable cells ± SD)
Method: MRC-5 human fibroblasts (ECACC) were cultured in MEME, Minimum Essential Medium Eagle (Merck) supplemented with 10% fetal bovine serum (Merck), 2 mM l-glutamine, antibiotics (100 U/mL penicillin, 100 μg/mL streptomycin, Merck) and 1% non-essential amino acids (Merck). Cells were grown in 75 cm^2 cell culture flasks (Sarstedt) in a humidified atmosphere of CO2/air (5/95%) at 37 °C. MTT-based viability assay was conducted as described previously. Optical densities were measured at 570 nm using a BioTek microplate reader. All measurements were carried out in three replicates, and the results were expressed as a percent of viable cells versus control cells.

AmpC producers = experiment: microdilution with ceftazidime; type: cell-based
Method: as §1, §2

B. subtilis ATCC 6633 = experiment: direct antimicrobial activity (disc-diffusion); type: cell-based; settings: Bacillus subtilis, ATCC6633; 0.4 mg per disc, 9 mm disc (linezolid 0.03 mg, 6 mm disc); - no zone; read-out: Diameter of inhibition zone
Method: as §3

[20] = 0.4 mg per disc, 9 mm disc (linezolid 0.03 mg, 6 mm disc), - no zone, read-out: Diameter of inhibition zone

| Structure (SMILES) | MIC (E. faecalis ATCC 29212) [µg/mL] | MIC (E. faecium ATCC 6057) [µg/mL] | MIC [5] [µg/mL] | MIC (S. aureus ATCC 6538P) [µg/mL] | MIC [6] [µg/mL] | MIC [7] [µg/mL] | MIC [8] [µg/mL] | MIC (C. krusei ATCC 6258) [µg/mL] | MIC (C. albicans ATCC 90028) [µg/mL] | MIC (C. tropicalis ATCC 750) [µg/mL] | MIC (C. tropicalis IBA 171) [µg/mL] | MIC (S. cerevisiae ATCC 9763) [µg/mL] | MIC (E. coli 76 KPC-2(+)) [µg/mL] | MIC (E. coli 77 CMY-2(+)) [µg/mL] | MIC [9] [µg/mL] | MIC [10] [µg/mL] | MIC [11] [µg/mL] | MIC [12] [µg/mL] | zone of inhibition at 300 µg/disc [13] [mm] | zone of inhibition at 300 µg/disc [14] [mm] | also measured |
| --- | --- | --- | --- | --- | --- | --- | --- | --- | --- | --- | --- | --- | --- | --- | --- | --- | --- | --- | --- | --- | --- |
| C[C@@H](O)[C@H]1C(=O)N2C(C(=O)O)=C(S[C@@H]3CN[C@H](C(=O)Nc4cccc(C(=O)O)c4)C3)[C@H](C)[C@H]12 [ERT, ertapenem, reference compound] | – | – | – | – | – | – | – | – | – | – | – | – | – | – | – | – | – | – | – | – | MIC [1]: 256 µg/mL; MIC [2]: 32 µg/mL; MIC [3]: 64 µg/mL; MIC [4]: 64 µg/mL; MIC range of ertapenem alone (KPC producers): 32 to 256 µg/mL |
| OB(O)c1cc(B(O)O)c(B(O)O)s1 [5c, thiophene-2,3,5-triboronic acid] | 200 (≈ 928 µM) | > 400 | > 400 | 400 (≈ 1860 µM) | > 400 | > 400 | > 400 | > 400 | 400 (≈ 1860 µM) | > 400 | > 400 | > 400 | > 400 | > 400 | > 400 | > 400 | > 400 | > 400 | 6 | 21 | zone of inhibition at 300 µg/disc [15]: 22 mm; zone of inhibition at 300 µg/disc [16]: 16 mm; Average FICI with ceftazidime [17]: 0.43; The lowest FICI with ceftazidime [17]: 0.27; Average FICI with ceftazidime [18]: 0.43; Interpretation of the average FICI with ceftazidime [18]: S (FICI ≤ 0.5, synergy); Interpretation of the lowest FICI with ceftazidime [18]: S (FICI ≤ 0.5, synergy); The lowest FICI with ceftazidime [18]: 0.27; viability at 72 h, 12.5 mg/L [19]: 102 ± 3.4%; viability at 72 h, 25 mg/L [19]: 97.9 ± 1.4%; viability at 72 h, 50 mg/L [19]: 85.6 ± 0.7%; ceftazidime MIC reduction, up to (AmpC producers; agent 4 mg/L): ≤ 2 fold; ceftazidime MIC reduction, up to (AmpC producers; agent 8 mg/L): up to 4 fold; ceftazidime MIC reduction, up to (AmpC producers; agent 16 mg/L): ≤ 8 fold |
| OB(O)c1ccc(Br)c(B(O)O)c1 [2f] | > 400 | 200 (≈ 818 µM) | 200 (≈ 818 µM) | 50 (≈ 204 µM) | 100 (≈ 409 µM) | > 400 | > 400 | 400 (≈ 1640 µM) | > 400 | > 400 | > 400 | 200 (≈ 818 µM) | > 400 | > 400 | > 400 | > 400 | > 400 | > 400 | 6 | 21 | zone of inhibition at 0.4 mg/disc [5, 20]: 13 mm; MBC (S. aureus ATCC 6538P): 400 µg/mL (≈ 1640 µM); zone of inhibition at 0.4 mg/disc (S. aureus ATCC 6538P; [20]): 14 mm; zone of inhibition at 0.4 mg/disc [6, 20]: 25 mm; zone of inhibition at 0.4 mg/disc (B. subtilis ATCC 6633): 22 mm; zone of inhibition at 300 µg/disc [15]: 19 mm; zone of inhibition at 300 µg/disc [16]: 15 mm; viability at 72 h, 12.5 mg/L [19]: 103 ± 8.8%; viability at 72 h, 25 mg/L [19]: 92.1 ± 0.9%; viability at 72 h, 50 mg/L [19]: 76.2 ± 0.7% |
